{"source": "patent US20230346905A1", "about": "“P[…] AGAINST […] ME[…] […] MEN A ANTIGEN” (GlaxosmithKline Biologicals SA, priority 2020, published 2023)", "key": {"[1]": {"tested_on": "bactericidal anti-MenA mAb (JW-A1)", "experiment": "Competitive ELISA with anti-MenA mAb, CPS as coating", "assay_type": "binding", "conditions": "FIG. 5A", "source_text": "(FIG. 5C) Competitive SPR of binding between anti-MenA mAb and immobilized biotylinated CPS. MenA CPS and deOAc CPS were the positive controls and the beta-glucan Laminarin was the negative control in A and B. MenA CPS and fragments thereof were used as positive controls and anti-MenC mAb was flown on the chip as negative control in C.\nAn important prerequisite for the immunogenicity of the carba-analogues is their ability to mimic the natural MenA CPS. To investigate this property in vitro, binding of oligomers with the different length to a bactericidal anti-MenA mAb (JW-A1) in comparison to CPS and a medium length oligomer with avDP ˜15 was tested as described in Giuntini, S. et al., PLoS One, 2012, 7, e34272; Tsang, R. S. et al., Clin. Diagn. Lab. Immunol., 2005, 12, 152-156; and Reyes, F. et al., Biologicals, 2013, 41, 275-278."}, "[2]": {"tested_on": "anti-MenA polyclonal serum", "experiment": "Competitive ELISA with anti-MenA polyclonal serum, CPS as coating", "assay_type": "binding", "conditions": "serum from mice immunized with MenA-CRM197 conjugate, FIG. 5B"}, "anti-deOAc MenA serum": {"tested_on": "anti-deOAc MenA serum", "experiment": "Competitive ELISA against anti-deOAc MenA serum", "assay_type": "binding", "description": "This corroborated the propensity of carba DP8 to anti-MenA antibody binding. The different fragments were then tested against an anti-deOAc MenA serum."}, "anti-carbaMenA DP8 serum": {"tested_on": "anti-carbaMenA DP8 serum", "experiment": "Competitive ELISA of anti-carbaMenA DP8 serum", "assay_type": "binding, BALB/c female mice", "description": "(§1) Conjugates prepared as previously described from sized MenA polysaccharide with avDP8.5 and ˜15 were used as controls.\n(§2) Mice received three subcutaneously (s.c.) doses (2 μg on saccharide base), two weeks apart. The neo-glycoconjugate induced an immune response at week 3, as observed by assaying the sera elicited by the conjugate against the same product coated on ELISA plates. At the serum dilutions tested no anti-CRM197 antibodies were detectable. Each of the conjugates gave antibodies recognizing the conjugated antigen and the specificity of this recognition was confirmed by competitive ELISA."}, "MenA CPS": {"tested_on": "MenA CPS", "experiment": "Mice immunization, ELISA anti-MenA CPS IgG", "assay_type": "in vivo, BALB/c mice", "conditions": "first study, Table 4", "description": "as §1, §2\nTo test the immunogenicity of the conjugated carba DP6 and DP8 analogues with and without random acetylation, groups of eight BALB/c female mice were immunized with the neoglycoconjugates. Conjugated sized MenA polysaccharide was used as control. Mice were immunized with three subcutaneously (s.c.) doses (2 μg on saccharide base) two weeks apart. […]\nAll mice were housed under specific pathogen-free conditions. […] The antibody response induced by the glycoconjugates has been measured by ELISA. […] Finally, plates were incubated for 30 min at room temperature and read at 405 nm using the plate reader Spectramax 190. Sera titers were expressed as the reciprocal of sera dilution corresponding to a cut-off OD=1. […]"}, "[3]": {"conditions": "DSC, cited from earlier work; for Tm of the N-terminal domain: Johnson et al. 2012"}}, "note": "“Also recorded” adds a separate entry of the source.", "data": [{"substance": "1-O-octa-(2-Acetamido-2-deoxy-5a-carba-α-D-mannopyranosyl-1-O-phosphoryl)-6-hexyl-amine [carba DP8]", "values": [{"measurement": "IC50 higher compared to the native CPS", "setting": "[1]", "result": "4 orders of magnitude"}, {"measurement": "recognition of / binding to the anti-MenA mAb", "setting": "[1]; competitive ELISA, non-acetylated carbaMenA oligomers as inhibitors, CPS coating", "result": "binding was observed; also recorded: clearly binding to anti-MenA antibodies"}, {"measurement": "performance as inhibitor", "setting": "[2]", "result": "performed as inhibitor comparably to the deOAc CPS"}, {"measurement": "IC50", "setting": "anti-deOAc MenA serum", "result": 15.9, "unit": "µM"}, {"measurement": "inhibition of the binding of the anti-carbaMenA DP8 serum (in words)", "setting": "anti-carbaMenA DP8 serum", "result": "to a greater extent than its conjugated form"}, {"measurement": "anti-MenA CPS response lower than the benchmark MenA-CRM197 conjugate", "setting": "MenA CPS", "result": 2, "unit": "fold lower"}]}, {"substance": "wild-type v2: wild-type meningococcal fHbp variant 2 from strain 2996", "values": [{"measurement": "Tm of the N-terminal domain", "setting": "[3]", "result": "≤ 40", "unit": "°C"}, {"measurement": "Tm of C-terminal domains", "setting": "[3]", "result": "≥ 80", "unit": "°C"}]}, {"substance": "wild-type v3: wild-type meningococcal fHbp variant 3 from strain M1239", "values": [{"measurement": "Tm of the N-terminal domain", "setting": "[3]", "result": "≤ 60", "unit": "°C"}, {"measurement": "Tm of C-terminal domains", "setting": "[3]", "result": "≥ 80", "unit": "°C"}]}]}
